Data as given in patent US8912144B2, “Method for treating stroke via administration of NEP1-40 and inosine” (Children's Medical Center Corporation, priority 2003, dated 2014).

Tested on: corticospinal neurons (CSNs/CSMNs)
Experiment: Laser-capture microdissection and Illumina microarray gene expression in corticospinal neurons contralateral to stroke
Type: in vivo, rat
Experimental: In a separate group of animals (n=20), layer V pyramidal cells of the sensorimotor cortex were retrogradely labeled by injecting Alexa-Fluor-488-conjugated cholera toxin B subunit (CTB; 300 U/μl in sterile saline) into the cervical spinal cord. For this, animals were anesthetized with a combination of ketamine and Domitor (medetomidine) and a laminectomy was performed at the cervical level of the spinal cord (C2-C4). CTB was stereotaxically delivered into four sites lateral to the corticospinal tract. Injections (1.3 μl) were spaced 1 mm apart on the rostro-caudal axis, and were made 0.5 mm to the left and right of the midline. After allowing two weeks for transport of the tracer, we performed either sham surgery with no treatment (n=6) or stroke surgery combined with saline (n=3) or inosine (n=4) treatment as described above. Seven days later, animals were decapitated under transient gas anesthesia, brains were removed and rinsed in cold RPMI medium, and a tissue block containing the sensorimotor cortex was dissected and placed in OCT Tissue Tek Medium (Sakura Finetek USA Inc., CA) on dry ice within five minutes of death. Ten μm sections were cut onto precleaned Gold Seal RITE-ON glass slides (Gold Seal Prod-ucts, Portsmouth, N.H.), placed on dry ice, and rapidly stored at −80° C.
Slide-mounted sections were thawed and dehydrated in RNAse-free ethanol gradients and xylene. Retro-gradely labeled, fluorescent cortical pyramidal cells in the undamaged hemisphere were individually captured using the Arcturus VERITAS system. ≧500 cells were collected from each animal and stored in Arcturus extraction buffer at −80° C. Total RNA was extracted from cells using the Micro-to-Midi TotalRNA Purification System (Invitrogen, Carlsbad Calif.) and double-amplified using the TargetAmp 2-Round Aminoallyl-aRNA Amplification kit 1.0 (Epicentre, Madison, Wis.). Amplified RNA was checked for average fragment length using the Agilent RNA 6000 Nano LabChip kit (Agilent Technologies, Santa Clara, Calif.) and then biotinylated and hybridized (1 μg) on Illumina RatRef-12 Expression BeadChip arrays (Illumina, San Diego Calif.), querying the expression of >22,000 RefSeq-curated rat transcripts. Results were obtained from a total of 15 samples representing 6 untreated controls, 4 animals with stroke treated with saline and 5 animals with stroke treated with inosine. Slides were processed and scanned with Illumina BeadStation platform according to the manufacturer protocol.
Raw data was analyzed using Bioconductor packages (www.bioconductor.org, (Gentleman et al., 2004)). Low level quality-control analysis was performed using inter-array Pearson correlation and clustering based on variance. Two arrays (1 saline and 1 inosine-treated) were outliers and were excluded from the analysis. Data was normalized using quantile normalization, and analysis of differential expression was performed using a linear model fitting (LIMMA package, (Smyth, 2005). Differentially expressed genes were classified according to gene ontology using Bioconductor packages and online tools (DAVID, http://david.abcc.ncifcrf.gov/). Pathway analysis was carried out using Ingenuity Pathway Analysis (Ingenuity Systems, www.ingenuity.com).

OC[C@H]1O[C@@H](n2cnc3c(O)ncnc32)[C@H](O)[C@@H]1O [inosine]
Signal Intensity, MGC94053 (ILMN_53763, inosine after stroke): 469
Fold-Induction Stroke, ino vs. cntrl, Cnot7 (ILMN_53955): 0.60
Signal Intensity, Cnot7 (ILMN_53955, inosine after stroke): 427
Fold-Induction Stroke, ino vs. cntrl, Rnf11 (ILMN_54109): 0.49
Signal Intensity, Rnf11 (ILMN_54109, inosine after stroke): 825
Fold-Induction Stroke, ino vs. cntrl, Scara3 (ILMN_54123): 0.78
Signal Intensity, Scara3 (ILMN_54123, inosine after stroke): 470
Fold-Induction Stroke, ino vs. cntrl, Gabarapl2 (ILMN_54140): 0.75
Signal Intensity, Gabarapl2 (ILMN_54140, inosine after stroke): 1324
Fold-induction CSMNs: Vim (ILMN_54242, over and above inosine's effect of decreasing stroke-induced changes): 1.96 fold
Fold-Induction Stroke, ino vs. cntrl, LOC501145 (ILMN_54288): 0.70
Signal Intensity, LOC501145 (ILMN_54288, inosine after stroke): 626
Fold-Induction Stroke, ino vs. cntrl, Echdc1 (ILMN_54458): 0.67
Signal Intensity, Echdc1 (ILMN_54458, inosine after stroke): 531
Fold-Induction Stroke, ino vs. cntrl, LOC498407 (ILMN_54747): 0.64
Signal Intensity, LOC498407 (ILMN_54747, inosine after stroke): 1261
Fold-Induction Stroke, ino vs. cntrl, Fuca2 (ILMN_55057): 0.56
Signal Intensity, Fuca2 (ILMN_55057, inosine after stroke): 662
Fold-Induction Stroke, ino vs. cntrl, Grm3 (ILMN_55270): 0.50
Signal Intensity, Grm3 (ILMN_55270, inosine after stroke): 387
Fold-induction CSMNs: Rnaset2 (ILMN_55431, over and above inosine's effect of decreasing stroke-induced changes): 1.88 fold
Fold-Induction, complement cascade gene C1qg (ILMN_55502, LCM-captured CSMNs contralateral a stroke): 3.96 fold
Fold-induction CSMNs: C1qg (ILMN_55502, over and above inosine's effect of decreasing stroke-induced changes): 2.73 fold
Fold-Induction Stroke, ino vs. cntrl, Map2k4 (ILMN_55667): 0.65
Signal Intensity, Map2k4 (ILMN_55667, inosine after stroke): 9089
Fold-Induction Stroke, ino vs. cntrl, LOC498618 (ILMN_55685): 0.49
Signal Intensity, LOC498618 (ILMN_55685, inosine after stroke): 3089
Fold-Induction, complement cascade gene C1s (ILMN_55706, LCM-captured CSMNs contralateral a stroke): 2.07 fold
Fold-induction CSMNs: C1s (ILMN_55706, over and above inosine's effect of decreasing stroke-induced changes): 2.03 fold
Fold-induction CSMNs: Bzrp (ILMN_55731, over and above inosine's effect of decreasing stroke-induced changes): 2.38 fold
Fold-Induction Stroke, ino vs. cntrl, Klhl2 (ILMN_55879): 0.78
Signal Intensity, Klhl2 (ILMN_55879, inosine after stroke): 516
Fold-Induction Stroke, ino vs. cntrl, Tceal1 (ILMN_55905): 0.57
Signal Intensity, Tceal1 (ILMN_55905, inosine after stroke): 286
Fold-Induction Stroke, ino vs. cntrl, LOC502317 (ILMN_55909): 0.40
Signal Intensity, LOC502317 (ILMN_55909, inosine after stroke): 689
Fold-Induction Stroke, ino vs. cntrl, Nr2f1 (ILMN_55914): 0.52
Signal Intensity, Nr2f1 (ILMN_55914, inosine after stroke): 526
Fold-Induction Stroke, ino vs. cntrl, Slc16a1 (ILMN_55995): 0.56
Signal Intensity, Slc16a1 (ILMN_55995, inosine after stroke): 827
Fold-Induction Stroke, ino vs. cntrl, Tpt1 (ILMN_56078): 0.89
Signal Intensity, Tpt1 (ILMN_56078, inosine after stroke): 11229
Fold-Induction Stroke, ino vs. cntrl, Acsl3 (ILMN_56170): 0.50
Signal Intensity, Acsl3 (ILMN_56170, inosine after stroke): 389
Fold-Induction Stroke, ino vs. cntrl, Scn1a (ILMN_56183): 0.88
Signal Intensity, Scn1a (ILMN_56183, inosine after stroke): 517
Fold-Induction Stroke, ino vs. cntrl, Cetn3 (ILMN_56556): 0.63
Signal Intensity, Cetn3 (ILMN_56556, inosine after stroke): 649
Fold-Induction Stroke, ino vs. cntrl, Zfp68 (ILMN_56593): 0.59
Signal Intensity, Zfp68 (ILMN_56593, inosine after stroke): 727
Fold-Induction Stroke, ino vs. cntrl, Pnrc1 (ILMN_56710): 0.65
Signal Intensity, Pnrc1 (ILMN_56710, inosine after stroke): 626
Fold-Induction Stroke, ino vs. cntrl, RGD1308082 (ILMN_56896): 0.62
Signal Intensity, RGD1308082 (ILMN_56896, inosine after stroke): 428
Fold-Induction Stroke, ino vs. cntrl, Scg3 (ILMN_56986): 0.69
Signal Intensity, Scg3 (ILMN_56986, inosine after stroke): 870
Fold-Induction Stroke, ino vs. cntrl, Plp (ILMN_57073): 0.51
Signal Intensity, Plp (ILMN_57073, inosine after stroke): 1222
Fold-induction CSMNs: Serpinb1a (ILMN_57422, over and above inosine's effect of decreasing stroke-induced changes): 2.41 fold
Fold-Induction Stroke, ino vs. cntrl, Lisch7 (ILMN_57520): 0.69
Signal Intensity, Lisch7 (ILMN_57520, inosine after stroke): 484
Fold-Induction Stroke, ino vs. cntrl, Olfm3 (ILMN_57553): 0.62
Signal Intensity, Olfm3 (ILMN_57553, inosine after stroke): 473
Fold-Induction Stroke, ino vs. cntrl, Vmp1 (ILMN_57554): 0.57
Signal Intensity, Vmp1 (ILMN_57554, inosine after stroke): 1305
Fold-Induction Stroke, ino vs. cntrl, Sc4mol (ILMN_57630): 0.52
Signal Intensity, Sc4mol (ILMN_57630, inosine after stroke): 271
Fold-Induction Stroke, ino vs. cntrl, RGD1308373 (ILMN_57697): 0.66
Signal Intensity, RGD1308373 (ILMN_57697, inosine after stroke): 2921
Fold-Induction Stroke, ino vs. cntrl, Gucy1b3 (ILMN_57719): 0.57
Signal Intensity, Gucy1b3 (ILMN_57719, inosine after stroke): 3956
Fold-Induction Stroke, ino vs. cntrl, Tnnc2 (ILMN_57928): 0.48
Signal Intensity, Tnnc2 (ILMN_57928, inosine after stroke): 650
